Results as given in article PMC11219860, “A chemogenetic approach for dopamine imaging with tunable sensitivity” (Nature Communications, 2024).

Experiments:
[1] = system: dLight1.3b-expressing HEK293T sniffer cells on primary DArgic neurons; test: DA release imaging from cultured DArgic neurons with dLight1.3b sniffer cells; assay type: cell-based, mouse; conditions: 4-AP 250 µM in perfusion
Protocol: Primary DA (DA) neurons were grown on a layer of cortical astrocytes. The astrocytes were first prepared from P0-P2 C57BL6 mice, grown in T75 flask and then seeded on collagen/poly-L-lysine coated 15 mm glass coverslips at a concentration of 100,000 cells/ml. The cells were allowed to grow until close to confluence before the seeding of neurons. Primary DArgic neurons were prepared and cultured from P0-P2 mouse pups using a previously described protocol. Briefly, the ventral midbrain of P0-P2 pups was dissected from DAT^IREScre x Ai9 mice in which DA neurons expressed the red fluorescent protein tdTomato. These were produced by crossing DAT^IREScre mice (catalog #006660, Jackson Labs[31]) to Ai9/tdTomato mice (catalog #007905, Jackson Labs[32]). Both of these lines were on a C57BL/6 J background. Midbrain cells were seeded at a concentration of 240,000 cells/ml on top of the astrocyte monolayer and allowed to grow for 10 days (10 DIV). Two days before imaging, expression of dLight1.3b was induced in stable HEK cells with doxycycline. One day prior to imaging, HEK cells were lifted using trypsin, and 150,000 HEK cells were seeded on top of 10 DIV-cultured neurons in doxycycline-supplemented neuronal medium. Imaging was performed on a confocal microscope (Nikon A1 HD25) using a 40X dry objective and a 488 nm laser to excite dLight1.3b and a 546 nm laser to activate tdTomato and identify DA neurons. On the day of imaging, physiological saline containing drugs at the specified concentration ([…], Sigma; SCH23390, Sigma; DETQ, Enamine) were applied on the culture using a computer-controlled perfusion system (Automate system). A field containing one or more DA neurons was selected based on the tdTomato signal. […]
Event detection was performed using a thresholding algorithm adapted from[80]. In brief, the recorded field of view was divided into square ROIs of 55 um x 55 um size. […] A rolling standard deviation was calculated with the same window size. Events were defined as timepoints at which the fluorescence intensity reading exceeds the averaged intensity by 5 standard deviations.

[2] = system: DRD1-MSNs; test: Whole-cell electrophysiology of DRD1-MSNs in dorsal striatum brain slices; assay type: cell-based, mouse
Protocol: For experiments involving SKF38393 application, to identify DRD1 receptor (DRD1)-positive neurons in the dorsal striatum, DRD1:cre mice injected with AAV5-hSyn-dlox-ChrimsonR-tdTomato were used. 3–4 weeks after viral injection, mice were anesthetized with 5% isoflurane and euthanized by decapitation. […] Slices were kept at 34 °C for 10–20 minutes and then at room temperature until recordings. In the recording chamber, slices were superfused with ACSF at 30–32 °C. Patch pipettes (3–7 MΩ) were pulled from borosilicate glass pipettes (GC150T-10, Harvard Apparatus). The internal solution contained (in mM): potassium gluconate 130, MgCl2 4, MgATP 3.4, Na3GTP 0.1, creatine phosphate 10, HEPES 5, and EGTA 1.1. The membrane potential was measured using EPC 10 USB Patch Clamp Amplifiers (HEKA). The access resistance was monitored by a hyperpolarizing step of −10 mV. The identification of DRD1-positive neurons was performed by the presence of red fluorescence protein and photo-evoked current or potential (@2 Hz, 10 ms duration, 2 pulses or 500 ms continuous pulse. light source: Colibri 7, Zeiss; 630 nm wavelength, 1 mW). To assess the excitability of neurons, positive currents were injected (0–500 pA) and the number of action potentials was counted at each current step. To measure input resistance, negative currents were injected (−200 to 0 pA, every 50 pA, 500 ms), as previously described. The resting membrane potential was measured at 0 pA current input.
Action potentials were evoked by current injection (50–500 pA, 500 ms) in current-clamped neurons. Neurons were recorded from in the presence of picrotoxin (100 µM), CGP55485 (0.3 µM), DNQX (10 µM), and MK801 (10 µM) to block GABAA, GABAB, AMPA and NMDA receptors, respectively. DA (10 µM) was applied to brain slices in the presence of cocaine (5 µM) to prevent reuptake.

[3] = system: human DRD1 (hmDRD1); conditions: human clones; ref Hao et al., 2019; Wang et al., 2018; cited from earlier work
[4] = target: T1, msDRD1 (Mus musculus, UniProt Q61616); conditions: rodent (rat or mouse); ref Hao et al., 2019; Wang et al., 2018; cited from earlier work
T1 construct: expressed in transfected cells; host or cells: HEK293T

[5] = target: dLight1.3b (Homo sapiens, UniProt P21728); test: DA titrations on dLight1.3b-expressing HEK293 cells (confocal fluorescence imaging); assay type: cell-based; conditions: D1-PAM 5 μM
Protocol: Cells were transfected at 50–60% confluency in glass-bottomed dishes (either individually or in 24-well plates) using the Effectene transfection kit (Qiagen) according to manufacturer instructions, and imaged 24–48 h after transfection. The Flp-In™ T-REx™ 293 cells (Thermo Fisher) with a stably integrated dLight1.3b cassette[48] were cultured as follows: the cells were cultured using HEK293T cell medium with the addition of Blasticidin (15 µg/ml) and Hygromycin B (200 µg/ml). To induce the expression of dLight1.3b, doxycycline (500 ng/ml) was added to the culture medium for 24–48 hours. Before imaging, cells were rinsed with 1 mL of Hank’s Balanced Salt Solution (HBSS, Life Technologies) supplemented with Ca^2+ (2 mM) and Mg^2+ (1 mM), and imaged at room temperature with a final HBSS volume of either 100 µL for each individual 1.5 cm glass bottom dish, or 500 µL for 24-well plates. Time-lapse imaging was performed on an inverted Zeiss LSM 800 confocal microscope using a 488 nm laser and a 40X oil-based objective. During imaging, ligands were added in bolus on the cells using a micropipette to reach the final specified concentrations of ligand over the cells. For quantification, except otherwise noted, regions of interest (ROI) were selected manually using the threshold function of Fiji to isolate the cell membrane. Sensor response (∆F/F) was calculated as the following: (F(t)-F_base)/F_base with F(t) being the ROI fluorescence value at each time point (t), and F_base being the mean fluorescence of the 10-time points immediately prior to ligand addition.

T1 sequence (Q61616 whole entry): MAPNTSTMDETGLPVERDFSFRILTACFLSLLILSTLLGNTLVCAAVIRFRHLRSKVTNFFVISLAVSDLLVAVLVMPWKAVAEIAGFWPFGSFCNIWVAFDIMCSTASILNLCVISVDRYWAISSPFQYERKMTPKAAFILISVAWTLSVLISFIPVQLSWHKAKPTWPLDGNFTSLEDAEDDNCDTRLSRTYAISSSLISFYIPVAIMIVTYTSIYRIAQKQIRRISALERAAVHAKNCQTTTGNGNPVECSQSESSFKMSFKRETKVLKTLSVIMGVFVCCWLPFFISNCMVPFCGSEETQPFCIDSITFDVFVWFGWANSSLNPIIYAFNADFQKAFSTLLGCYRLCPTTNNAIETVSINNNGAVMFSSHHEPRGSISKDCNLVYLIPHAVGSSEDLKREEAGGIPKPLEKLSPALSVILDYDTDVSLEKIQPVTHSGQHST

Compound: Nc1ccncc1 [4-AP, 4-aminopyridine]
- DA release events [1]: larger localized DA release events started to become noticeable

Compound: NCCc1ccc(O)c(O)c1 [DA, Dopamine]
- number of action potentials evoked by current injection ([2]; DA 10 µM bath application vs control): increased the number of action potentials

Compound: C[C@H]1c2cccc(CCC(C)(C)O)c2C[C@H](CO)N1C(=O)Cc1c(Cl)cccc1Cl [LY315207, 2-(2,6-Dichlorophenyl)-1-((1S,3R)-5-(3-hydroxy-3-methylbutyl)-3-(hydroxymethyl)-1-methyl-3,4-dihydroisoquinolin-2(1H)-yl)ethan-1-one]
- maximal potentiation of dopamine [3]: 75-85%
- partial potentiation of dopamine (% of max potentiation) [4]: 45-53%

Compound: Cn1c2ccccc2c(=O)c2c(=O)n(-c3ccccc3)c(C3CCCCC3)nc21 [MLS1082]
- effect on the DA sensitivity of dLight1.3b [5]: did not have a noticeable effect

Compound: CC(C)(C)C1CCc2c(sc(NC(=O)c3ccncc3)c2C(N)=O)C1 (stereo not shown) [MLS6585]
- effect on the DA sensitivity of dLight1.3b [5]: did not have a noticeable effect

Compound: Oc1cc2c(cc1O)C(c1ccccc1)CNCC2 (stereo not shown) [SKF38393]
- firing rate during current-injection of DRD1-MSNs ([2]; SKF38393 1 µM superfusion): significant increase
